{
  "source": "patent US4039550A",
  "about": "“Lower-alkyl (5-substituted-2-pyridyl)carbamodithioates” (Sterling Drug Inc., priority 1976, dated 1977)",
  "key": {"N. dubius [1]": {"test_system": "N. dubius", "assay": "Anthelmintic screening in mice against N. dubius (roundworm), four-day medication", "format": "in vivo, Nematospiroides dubius in Swiss mice", "conditions": "200 mg./kg./day p.o. for four days", "method": "(§1) Anthelmintic activity was determined in mice against one species of roundworm (Nematospiroides dubius), one species of pinworm (Syphacia obvelata) and one species of tapeworm (Hymenolepis nana). The various test procedures used are described as follows: Swiss mice weighing approximately 20 grams were infected with approximately 20 larvae of N. dubius which were administered in 10% gelatin via stomach tube. For screening purposes, compounds, made up in 10% galatin, were administered via stomach tube in equally divided daily doses for four consecutive days beginning fourteen days after infection. Four days after the final medication, the animals were sacrificed and examined for the presence of worms. Efficacy against N. dubius was judged on the basis of percent worm reduction compared to control non-medicated mice. In addition, for the purpose of evaluation, the compounds were administered orally to a series of animals at graded doses, each animal receiving a single dose, and the results against N. dubius expressed in terms of an Effective Dose50 (ED50), the ED50 representing the dose necessary to remove 50% of the worm burden.\n(§2) Data obtained in anthelmintic screening tests against the helminth infections, N. dubius (a), H. nana (b) and S. obvelata (c), are given in the table below. Results are expressed in terms of the percent of animals cleared at a standard dose of 200 mg./kg./day (p.o.) for four days; as percent of animals cleared at a single dose (S.D.) of 25 mg./kg.; or as an ED50 on single dose administration (ED50) against N. dubius."}, "S. obvelata": {"test_system": "S. obvelata", "assay": "Anthelmintic screening in mice against S. obvelata (pinworm), four-day medication", "format": "in vivo, Syphacia obvelata in Swiss mice", "conditions": "200 mg./kg./day p.o. for four days", "from_the_text": "The same test procedures described above were used to assess the effectiveness of the compounds against S. obvelata, a naturally occurring pinworm infection in Swiss mice. Efficacy was judged by the percent of mice cleared of the infection compared to non-medicated control mice.\nas §2"}, "H. nana": {"test_system": "H. nana", "assay": "Anthelmintic screening in mice against H. nana (tapeworm), four-day medication", "format": "in vivo, Hymenolepis nana in Swiss mice", "conditions": "200 mg./kg./day p.o. for four days", "method": "In tests against the tapeworm, H. nana, Swiss mice weighing approximately 20 grams were infected with approximately 12,000 ova of H. nana administered in 10% gelatin via stomach tube. The test compounds, made up in 10% gelatin, were administered via stomach tube in equally divided doses daily for four consecutive days beginning twelve days after infection. Four days after the final medication, the animals were sacrificed and examined for the presence of worms. Efficacy was judged by the percent of mice cleared compared to non-medicated control mice.\nas §2"}, "N. dubius [2]": {"test_system": "N. dubius", "assay": "Anthelmintic single-dose test in mice against N. dubius (S.D. and ED50)", "format": "in vivo, Nematospiroides dubius in Swiss mice", "conditions": "for ED50: Heligmosomoides polygyrus, against N. dubius, single oral dose, dose necessary to remove 50% of the worm burden, read-out: ED50 on single dose administration", "method": "as §1, §2"}, "bacteria": {"test_system": "bacteria", "conditions": "Foye et al., J. Am. Pharm. Assoc. 47, 556-558 (1958); cited from earlier work"}},
  "data": [
    {"smiles": "CSC(=S)Nc1ccc(Cl)cn1", "note": "[Example 1, methyl (5-chloro-2-pyridyl)carbamodithioate]", "values": [
      {"measurement": "% Cleared/200 mg./kg. (a)", "setting": "N. dubius [1]", "result": 100, "unit": "%"},
      {"measurement": "% Cleared/200 mg./kg. (c)", "setting": "S. obvelata", "result": 40, "unit": "%"},
      {"measurement": "% Cleared/200 mg./kg. (b)", "setting": "H. nana", "result": 80, "unit": "%"},
      {"measurement": "ED50", "setting": "N. dubius [2]", "result": "2 ± 0.917", "unit": "mg/kg"}
    ]},
    {"smiles": "CSC(=S)Nc1ccc(N(C)C)cn1", "note": "[Example 3, methyl (5-dimethylamino-2-pyridyl)carbamodithioate]", "values": [
      {"measurement": "% Cleared/200 mg./kg. (a)", "setting": "N. dubius [1]", "result": 100, "unit": "%"},
      {"measurement": "% Cleared/200 mg./kg. (c)", "setting": "S. obvelata", "result": 0, "unit": "%"},
      {"measurement": "% Cleared/200 mg./kg. (b)", "setting": "H. nana", "result": 0, "unit": "%"},
      {"measurement": "S.D. (percent of animals cleared at a single dose)", "setting": "N. dubius [2]; single dose of 25 mg./kg., mice", "result": 64.5, "unit": "%"}
    ]},
    {"smiles": "CCSC(=S)Nc1ccccn1", "note": "[Ethyl (2-pyridyl)-carbamodithioate]", "values": [
      {"measurement": "anti-bacterial activity", "setting": "bacteria", "result": "active as an anti-bacterial agent"}
    ]},
    {"smiles": "CSC(=S)Nc1ccc(C)cn1", "note": "[Example 2, methyl (5-methyl-2-pyridyl)carbamodithioate]", "values": [
      {"measurement": "% Cleared/200 mg./kg. (a)", "setting": "N. dubius [1]", "result": 100, "unit": "%"},
      {"measurement": "% Cleared/200 mg./kg. (c)", "setting": "S. obvelata", "result": 30, "unit": "%"},
      {"measurement": "% Cleared/200 mg./kg. (b)", "setting": "H. nana", "result": 30, "unit": "%"},
      {"measurement": "ED50", "setting": "N. dubius [2]", "result": "7.75 ± 3.54", "unit": "mg/kg"}
    ]}
  ]
}
